Measurements published in the NIST ThermoML archive (doi:10.1016/j.jct.2006.05.006).

Assay: xn = mol fraction of the nth substance listed
Conditions: 101 kPa, Liquid

CN1CCCC1=O [N-methylpyrrolidone] + Cc1ccccc1
Conditions | mass density [kg/m3]
293.15 K, x2 = 0 | 1032.66
293.15 K, x2 = 0.0541 | 1024.34
293.15 K, x2 = 0.1254 | 1013.29
293.15 K, x2 = 0.1845 | 1004.06
293.15 K, x2 = 0.2412 | 995.15
293.15 K, x2 = 0.3154 | 983.34
293.15 K, x2 = 0.3845 | 972.23
293.15 K, x2 = 0.4521 | 961.22
293.15 K, x2 = 0.5214 | 949.8
293.15 K, x2 = 0.5865 | 938.94
293.15 K, x2 = 0.6458 | 928.94
293.15 K, x2 = 0.7124 | 917.57
293.15 K, x2 = 0.7784 | 906.16
293.15 K, x2 = 0.8425 | 894.94
293.15 K, x2 = 0.9014 | 884.51
293.15 K, x2 = 0.9784 | 870.71
303.15 K, x2 = 0 | 1023.42
303.15 K, x2 = 0.0482 | 1016
303.15 K, x2 = 0.1235 | 1004.32
303.15 K, x2 = 0.1856 | 994.6
303.15 K, x2 = 0.2436 | 985.45
303.15 K, x2 = 0.3145 | 974.17
303.15 K, x2 = 0.3854 | 962.74
303.15 K, x2 = 0.4521 | 951.88
303.15 K, x2 = 0.5236 | 940.09
303.15 K, x2 = 0.5852 | 929.81
303.15 K, x2 = 0.6451 | 919.71
303.15 K, x2 = 0.7145 | 907.86
303.15 K, x2 = 0.7854 | 895.61
303.15 K, x2 = 0.8541 | 883.57
303.15 K, x2 = 0.9015 | 875.19
303.15 K, x2 = 0.9789 | 861.34
313.15 K, x2 = 0 | 1014.27
313.15 K, x2 = 0.0522 | 1006.21
313.15 K, x2 = 0.1257 | 994.77
313.15 K, x2 = 0.1901 | 984.67
313.15 K, x2 = 0.2401 | 976.76
313.15 K, x2 = 0.321 | 963.85
313.15 K, x2 = 0.3952 | 951.86
313.15 K, x2 = 0.4654 | 940.38
313.15 K, x2 = 0.5321 | 929.35
313.15 K, x2 = 0.5984 | 918.25
313.15 K, x2 = 0.6541 | 908.84
313.15 K, x2 = 0.7248 | 896.74
313.15 K, x2 = 0.7895 | 885.54
313.15 K, x2 = 0.8412 | 876.51
313.15 K, x2 = 0.9215 | 862.31
313.15 K, x2 = 0.9759 | 852.57
323.15 K, x2 = 0 | 1005.62
323.15 K, x2 = 0.0487 | 998.04
323.15 K, x2 = 0.1147 | 987.71
323.15 K, x2 = 0.1789 | 977.59
323.15 K, x2 = 0.2365 | 968.43
323.15 K, x2 = 0.2987 | 958.46
323.15 K, x2 = 0.3695 | 947
323.15 K, x2 = 0.4351 | 936.27
323.15 K, x2 = 0.4954 | 926.31
323.15 K, x2 = 0.5654 | 914.62
323.15 K, x2 = 0.6215 | 905.15
323.15 K, x2 = 0.6945 | 892.69
323.15 K, x2 = 0.7658 | 880.39
323.15 K, x2 = 0.8321 | 868.8
323.15 K, x2 = 0.9201 | 853.23
323.15 K, x2 = 0.9758 | 843.26
333.15 K, x2 = 0 | 996.28
333.15 K, x2 = 0.0478 | 988.83
333.15 K, x2 = 0.1102 | 979.04
333.15 K, x2 = 0.1874 | 966.85
333.15 K, x2 = 0.2451 | 957.65
333.15 K, x2 = 0.3147 | 946.45
333.15 K, x2 = 0.3984 | 932.84
333.15 K, x2 = 0.4682 | 921.37
333.15 K, x2 = 0.5321 | 910.74
333.15 K, x2 = 0.5984 | 899.6
333.15 K, x2 = 0.6541 | 890.15
333.15 K, x2 = 0.7241 | 878.16
333.15 K, x2 = 0.7985 | 865.26
333.15 K, x2 = 0.8541 | 855.52
333.15 K, x2 = 0.921 | 843.69
333.15 K, x2 = 0.98 | 833.15
343.15 K, x2 = 0 | 987.39
343.15 K, x2 = 0.0512 | 979.36
343.15 K, x2 = 0.1245 | 967.81
343.15 K, x2 = 0.1895 | 957.47
343.15 K, x2 = 0.246 | 948.41
343.15 K, x2 = 0.3124 | 937.69
343.15 K, x2 = 0.3841 | 926
343.15 K, x2 = 0.4514 | 914.91
343.15 K, x2 = 0.5214 | 903.26
343.15 K, x2 = 0.5954 | 890.81
343.15 K, x2 = 0.6598 | 879.85
343.15 K, x2 = 0.7214 | 869.28
343.15 K, x2 = 0.7954 | 856.43
343.15 K, x2 = 0.8596 | 845.17
343.15 K, x2 = 0.9214 | 834.23
343.15 K, x2 = 0.9788 | 823.98
353.15 K, x2 = 0 | 978.62
353.15 K, x2 = 0.0821 | 965.64
353.15 K, x2 = 0.1337 | 957.42
353.15 K, x2 = 0.1993 | 946.92
353.15 K, x2 = 0.2646 | 936.37
353.15 K, x2 = 0.3306 | 925.62
353.15 K, x2 = 0.3965 | 914.8
353.15 K, x2 = 0.4514 | 905.7
353.15 K, x2 = 0.5214 | 894
353.15 K, x2 = 0.5984 | 880.99
353.15 K, x2 = 0.6514 | 871.96
353.15 K, x2 = 0.7214 | 859.91
353.15 K, x2 = 0.7984 | 846.52
353.15 K, x2 = 0.858 | 836.05
353.15 K, x2 = 0.9265 | 823.91
353.15 K, x2 = 0.9799 | 814.38
